Data on one compound can be found in patent US20080181961A1, “AMORPHOUS OXCARBAZEPINE AND THE PRODUCTION THEREOF” (ISP INVESTMENTS, INC., priority 2007, published 2008).

The data set can be described thus: Aqueous release, USP apparatus II (paddles), water with 6% Cremophor EL (sink conditions). It counts as physicochemical. Conditions: 37° C., 100 rpm to 60 minutes then 200 rpm for 15 minutes, 600 mg dose, FIG. 2.

Procedure: Dissolution profiles can be determined using USP apparatus II (paddles) (VK 7010®, Varian Inc.), with a bath temperature of 37° C. and a paddle speed of 100 rpm for 60 minutes, followed by a paddle speed of 200 rpm for an additional 15 minutes.
The aqueous release of the spray dried powder was measured using USP apparatus II (paddles) at 37° C. in water with 6% Cremophor EL. The paddle speed was 100 rpm for the first 60 minutes, and then the paddle speed was increased to 200 rpm for an additional 15 minutes. A dose equivalent to 600 mg oxcarbazepine was filled into hard gelatin capsules (Qualicaps, Shionogi). This media creates sink conditions for the tested dose. • 5.
The release profile of this spray dried product was measured using the same dissolution method of Example 1, that is, in media that creates sink conditions for the tested dose. • 5.

Consider `NC(=O)N1c2ccccc2CC(=O)c2ccccc21` [crystalline oxcarbazepine, 10,11-dihydro-10-oxo-5H-dibenz[b,f]azepine-5-carboxamide], for which the “oxcarbazepine release after the first 15 minutes” value is “remained essentially constant”.
